According to patent US8236756B2, “Prodrugs cleavable by CD26” (Consejo Superior de Investigaciones Clentificas (CSIC), priority 2003, dated 2012):

Tests used:
[1] = Effect of CD26 inhibitor on conversion of CAM-405 to CAM-212 by bovine serum; assay type: biochemical; settings: 2.5% BS in PBS, 50 μM CAM-405
Description: (§1) CD26-catalysed CAM-405 conversion to CAM-212 was recorded in the absence or presence of the CD26 inhibitor diprotin A (FIG. 5). […] These observations point to CD26 as the main and predominant enzyme responsible in HS and BS to remove the dipeptide part from the lipophilic NAP-TSAO dipeptide nucleoside analogue.
(§2) All enzyme activity assays were performed in Eppendorf tubes on a heating block at 37° C. To each tube were added 32 μl CD26 (at a final concentration of 1.5 milliUnits) or 10 μl foetal bovine serum (BS) (final concentration: 2.5% BS in PBS; preheated at 56° C. for 30 min) or 10 μl human serum (HS) (final concentration: 2.5% HS in PBS), 40 μl of appropriate concentrations of inhibitor (Diprotin A) solution in PBS (for the exact concentrations, see the legend to FIG. 5), CAM-405 (the substrate of the reaction) at […] (final concentration) and PBS to reach a total volume of 400 μl. The pH of the reaction mixture was 7.5, which is virtually identical to the physiological pH of plasma. The reaction was started by the addition of the enzyme or serum and carried out at 37° C. After 5 hr, 100 μl reaction mixture was taken from the Eppendorf tube and added to 200 μl cold methanol to precipitate the proteins. After 10 min standing on ice, the contents of the tubes were centrifuged and the supernatants analysed by HPLC on a reverse phase column (RP-8, Merck Laboratories). […]

purified CD26 [2] = target: T1, purified CD26 (Homo sapiens, UniProt P27487); assay: Effect of CD26 inhibitor on conversion of CAM-405 to CAM-212 by purified CD26; assay type: biochemical; settings: CD26 1.5 mUnits, 50 μM CAM-405
T1 construct: made in house
T1 sequence (P27487 whole entry): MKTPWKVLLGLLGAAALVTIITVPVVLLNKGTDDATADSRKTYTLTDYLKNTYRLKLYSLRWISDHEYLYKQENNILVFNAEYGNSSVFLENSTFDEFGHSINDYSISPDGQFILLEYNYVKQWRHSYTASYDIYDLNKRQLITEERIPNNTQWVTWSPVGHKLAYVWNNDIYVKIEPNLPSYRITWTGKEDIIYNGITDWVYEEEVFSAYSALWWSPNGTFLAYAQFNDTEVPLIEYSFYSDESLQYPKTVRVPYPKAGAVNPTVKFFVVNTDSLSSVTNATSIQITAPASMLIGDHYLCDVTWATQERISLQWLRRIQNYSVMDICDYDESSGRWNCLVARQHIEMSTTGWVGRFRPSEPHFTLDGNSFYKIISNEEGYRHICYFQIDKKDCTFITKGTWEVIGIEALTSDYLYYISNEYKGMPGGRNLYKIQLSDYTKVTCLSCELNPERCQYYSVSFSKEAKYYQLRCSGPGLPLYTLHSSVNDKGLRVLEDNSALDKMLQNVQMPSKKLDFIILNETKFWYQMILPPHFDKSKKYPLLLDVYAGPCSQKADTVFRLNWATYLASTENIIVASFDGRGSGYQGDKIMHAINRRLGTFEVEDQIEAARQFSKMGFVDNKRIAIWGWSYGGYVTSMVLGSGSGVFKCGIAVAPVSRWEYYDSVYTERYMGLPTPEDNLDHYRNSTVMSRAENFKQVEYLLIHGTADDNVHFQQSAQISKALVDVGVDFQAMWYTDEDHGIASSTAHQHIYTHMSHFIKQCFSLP
Description: as §1, §2

[3] = Effect of CD26 inhibitor on conversion of CAM-405 to CAM-212 by human serum; assay type: biochemical; settings: 2.5% HS in PBS, 50 μM CAM-405
Description: as §1, §2

[4] = Solubility in Milli-Q water; assay type: physicochemical; settings: 1 mg/ml in Milli-Q water; 2 × 10 sec sonication, 4 days shaking, room temperature; centrifugation, U.V. spectrum
Text: It is also clear that the nature of the dipeptide moiety present on NAP-TSAO markedly affect prodrug solubility in water.

purified CD26 [5] = target: T1, purified CD26; assay: Conversion of peptide prodrugs to parent compound by purified CD26 (HPLC); assay type: biochemical; settings: Table 1, purified CD26 1.5 mUnits
Description: To reveal whether CD26 recognizes such synthetic di/tripeptide derivatives of lipophilic nucleoside analogues as a substrate, 50 μM CAM-405 or CAM-431 was exposed to 5.7 mUnits of purified CD26, and the conversion of CAM-405 or CAM-431 to respectively CAM-212 or CAM-403 (Val-NAP-TSAO) was recorded in function of incubation time by HPLC analysis. […] Within the first 10 min of the reaction, at least 20% of CAM-405 had been converted to CAM-212, fifty percent of the TSAO dipeptide derivative was converted to CAM-212 within 30 min of the reaction and ˜67% of CAM-405 was hydrolyse after 60 min. Thus, the reaction rate started already to slow down after the first 10 min of drug exposure (FIG. 2). Most likely, the release of the reaction product Val-Pro dose-dependently feed-back inhibited the CD26-catalysed dipeptidyl-peptidase reaction. […] Thus, in the presence of 50 μM CAM-405, hydrolysis of 50% of CAM-405 to CAM-212 results in the appearance of 25 μM Val-Pro, that is a concentration that (feed-back) inhibits the CD26 reaction by ˜50%. These findings explain why the CD26-catalysed reaction levels-off shortly after the start of the exposure of the drug to CD26. […] Thus, a further level of modulation of the rate of prodrug release can be introduced by choosing a dipeptide moiety that competes for the active site of CD26, until the dipeptide has diffused from the tissue wherein CD26 is present. The inhibitory activity of any dipeptide can be evaluated by the above mentioned assay.
The conversion rate in function of time is given in Table 1 for NAP-TSAO-dipeptides where the dipeptide consists of: Val-Pro, Val-D-Pro, Asp-Pro, Lys-Pro, Tyr-Pro, Gly-Pro, Val-4-hydroxyPro, Gly-3,4-dihydroxyPro, but also Val-Gly, Val-Ala, Val-Leu and Val-Phe. It is clear that the conversion rate to the parent NAP-TSAO differs depending the nature of the dipeptide. Also, when the terminal amine of the dipeptide has been blocked by a lipophilic group (i.e. methyl, Z or Fmoc), the prodrug looses measurable substrate activity for CD26.
The conversion rate in function of time is given in Table 2 for tetrapeptide NAP-TSAO compounds where the tetrapeptide consists of: Val-Pro-Val-Pro [SEQ ID no:6] (CAM 467), Val-Ala-Val-Pro [SEQ ID no:7] (CAM 473) or Lys-Pro-Asp-Pro [SEQ ID no:8] (CAM 477). […] Only traces of dipeptide prodrug (CAM 405) is seen as intermediate in the conversion of the tetrapeptide CAM 473 to NAP-TSAO.
as §2, with “Laboratories). CAM-405 was separated from CAM-212 (the product of the reaction) by a gradient of 50 mM sodium phosphate+5 mM heptane sulfonic acid pH 3.2 (Buffer A) and acetonitrile (Buffer B) as follows: Buffer A: 98%+2% Buffer B, 2 min; linear gradient to 20% Buffer.” for “Laboratories).”

[6] = Conversion of prodrugs to parent compound by human serum diluted in PBS; assay type: in vitro ADME; settings: 50 μM; 20% human serum in PBS (FIG. 6)
Description: Human and bovine serum were incubated for 3 hr, 6 hr and/or 24 hr at 37° C. in the presence of 50 μM CAM-405. The sera were diluted in PBS at a final concentration of 0.5, 1, 2.5 or 5%. […] The longer the incubation time, and the higher the serum concentration used, the faster the conversion of CAM-405 to CAM-212 occurred (FIG. 4). As also noted for CD26, HS- and BS-catalysed reaction slowed down in function of time, and was not linearly proportional with serum concentration (FIG. 4). These findings provide again evidence for a pronounced feed-back inhibition of dipeptidyl-peptidase activity in human and bovine serum by the released Val-Pro dipeptide. HS was more efficient in converting CAM-405 to CAM-212 than BS (FIG. 4). Since 1% HS is able to hydrolyse ˜20% of 50 μM CAM-405 within 3 hrs of incubation, it could be calculated that undiluted serum would have been able to convert this prodrug amount to its parent compound at a hundred fold higher speed, that is, within 1.8 min, provided that no feed-back inhibition would have occurred (as expected in the intact organism where release of Pro-Val would immediately result in disappearance from the plasma due to several mechanisms including organ uptake, renal excretion, etc.).
Only a very limited amount of NAP-TSAO (but not D-Pro-NAP-TSAO) had been detected (FIG. 6).
Ten percent BS or HS converted 40 to 70% of PI-2 to PI-1 in one hour (FIG. 10). Two percent BS and HS converted PI-2 to PI-1 by 8% and 25%, respectively. After 4 hrs, 35% and 95% of compound was hydrolyzed by BS and HS, respectively (FIG. 11).
The TSAO derivatives depicted in FIG. 1 can be synthesised as described below. GlyPro-pNA (GP-pNA), Diprotin A and Val-Pro were purchased from Sigma-Aldrich (Bornem, Belgium). CD26 was purified as described before [De Meester et al. J. Immunol. Methods (1996), 189: 99-105]. Foetal bovine serum (FBS) was obtained from Integro (Dieren, The Netherlands). Human serum represented a pooled serum that was derived from 10 healthy volunteers (blood donors). Human lymphocyte CEM cells were derived from the ATCC (Rockville, Md.).

| Suppression of conversion of CAM-405 to CAM-212 by purified CD26 at 100 μM inhibitor (purified CD26 [2]; 100 μM) [%] | Prevention of conversion of CAM-405 to CAM-212 by purified CD26 at 1000 μM inhibitor (purified CD26 [2]; 1000 μM) | Spectrum (~265 nm) [4] | Conversion % to parent compound by purified CD26, 1 h (purified CD26 [5]) [%] | Conversion % to parent compound by purified CD26, 4 h (purified CD26 [5]) [%] | Conversion % to parent compound by purified CD26, 24 h (purified CD26 [5]) [%] | Compound | Suppression of conversion of CAM-405 to CAM-212 by BS at 100 μM inhibitor ([1]; 100 μM) [%] | Prevention of conversion of CAM-405 to CAM-212 in BS at 1000 μM inhibitor ([1]; 1000 μM) | Suppression of conversion of CAM-405 to CAM-212 by HS at 100 μM inhibitor ([3]; 100 μM) [%] | Prevention of conversion of CAM-405 to CAM-212 in HS at 1000 μM inhibitor ([3]; 1000 μM) | Conversion by 20% human serum, in words [6] |
| --- | --- | --- | --- | --- | --- | --- | --- | --- | --- | --- | --- |
| > 50 | nearly complete prevention |  |  |  |  | Diprotin A | > 50 | nearly complete prevention | > 50 | nearly complete prevention |  |
|  |  | 1.886 | 0 | 0 | 0 | Cc1cn(C2OC(CO[Si](C)(C)C(C)(C)C)C3(OS(=O)(=O)C=C3N)C2O[Si](C)(C)C(C)(C)C)c(=O)n(CCCNC(=O)CNC(=O)[C@@H](N)C(C)C)c1=O (stereo partly drawn) [CAM-422, H-Val-Gly-NAP-TSAO] |  |  |  |  | efficiently (but solely) converted to Gly-NAP-TSAO |
|  |  | 3.220 | 0 | ~1 | ~2 | Cc1cn(C2OC(CO[Si](C)(C)C(C)(C)C)C3(OS(=O)(=O)C=C3N)C2O[Si](C)(C)C(C)(C)C)c(=O)n(CCCNC(=O)[C@H]2CCCN2C(=O)[C@@H](N)C(C)C)c1=O (stereo partly drawn) [CAM-430, H-Val-D-Pro-NAP-TSAO] |  |  |  |  | very stable |
